Article PMC8784640, “New insights into the molecular mechanisms of glutaminase C inhibitors in cancer cells using serial room temperature crystallography” (The Journal of Biological Chemistry, 2021)
Substitutions are numbered along the chain they refer to. Several values for one entry are separate records, joined by “and”; a condition that tells them apart may be missing. Equal entries are not always repeated.

Key:
GAC (F322W) = target: T1, GAC (F322W) (Mus musculus, UniProt D3Z7P3, F327W); experiment: Tryptophan fluorescence quenching binding assay, GAC (F322W)
T1 sequence (D3Z7P3 72-603 isoform D3Z7P3-2 F327W limits assumed): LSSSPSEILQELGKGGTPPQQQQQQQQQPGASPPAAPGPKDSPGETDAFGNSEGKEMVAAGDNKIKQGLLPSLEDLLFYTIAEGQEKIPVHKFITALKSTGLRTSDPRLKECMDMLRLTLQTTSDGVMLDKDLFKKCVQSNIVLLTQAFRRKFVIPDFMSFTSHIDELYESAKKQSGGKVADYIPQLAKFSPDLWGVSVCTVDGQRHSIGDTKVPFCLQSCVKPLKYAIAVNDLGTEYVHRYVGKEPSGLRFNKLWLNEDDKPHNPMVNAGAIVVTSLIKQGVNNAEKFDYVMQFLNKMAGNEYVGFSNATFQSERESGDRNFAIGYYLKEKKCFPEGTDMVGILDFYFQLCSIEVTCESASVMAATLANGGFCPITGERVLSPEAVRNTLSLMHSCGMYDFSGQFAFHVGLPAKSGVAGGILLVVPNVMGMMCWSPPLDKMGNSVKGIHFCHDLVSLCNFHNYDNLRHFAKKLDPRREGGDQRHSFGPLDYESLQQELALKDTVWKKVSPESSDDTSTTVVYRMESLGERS
Description: (§1) We first examined their ability to alter the conformation of the activation loop, that is, the site where the compounds bind to GAC ([15], [28]). […] We then treated the GAC (Y466W) mutant with each molecule to monitor conformational changes within the substrate-binding site ([15], [28]).
(§2) Mouse GAC (F327W) and GAC (Y471W), which correspond to human GAC (F322W) and GAC (Y466W), were prepared as previously described ([14], [28]), except that the protein was eluted in a higher salt buffer during FPLC purification (500 mM NaCl, 20 mM Tris–HCl, pH 8.5) to enhance protein stability. Assays were then conducted as previously described ([14], [28]). Briefly, 100 nM GAC (F327W) or GAC (Y471W) was solvated in 1 ml of 50 mM Tris-acetate, pH 8.5, with 0.1 mM EDTA and the indicated amount of inhibitor.

recombinant GAC = test system: recombinant GAC; set-up: method as in PMID 26988803; details: cited from earlier work; for IC50: recombinant GAC (50 nM), total glutamine hydrolysis
GAC (Y466W) = target: T2, GAC (Y466W) (Mus musculus, UniProt D3Z7P3, Y471W); experiment: Tryptophan fluorescence quenching binding assay, GAC (Y466W); details: for Kd: Kd (apparent), Trp 466 fluorescence quenching
T2 sequence (D3Z7P3 72-603 isoform D3Z7P3-2 Y471W limits assumed): T1 sequence (D3Z7P3 72-603 isoform D3Z7P3-2 F327W limits assumed) with W256F, Y400W
Description: as §1, §2

mouse GAC (K325A) = test system: mouse GAC (K325A); set-up: method as in PMID 23935106; details: concentrations as high as 10 μM; equivalent to human GAC (K320A); cited from earlier work
GAC (K320A and Y466W) = target: T3, GAC (K320A and Y466W) (Mus musculus, UniProt D3Z7P3, K325A/Y471W); experiment: Tryptophan fluorescence quenching binding assay, GAC (K320A and Y466W); details: GAC mutant K320A, Trp 466 fluorescence, read-out: Kd (apparent)
T3 construct: made in house
T3 sequence (D3Z7P3 72-603 isoform D3Z7P3-2 K325A/Y471W): T1 sequence (D3Z7P3 72-603 isoform D3Z7P3-2 F327W limits assumed) with K254A, W256F, Y400W

GAC (R317A and Y466W) = target: T4, GAC (R317A and Y466W) (Mus musculus, UniProt D3Z7P3, R322A/Y471W); experiment: Tryptophan fluorescence quenching binding assay, GAC (R317A and Y466W); details: GAC mutant R317A, Trp 466 fluorescence, read-out: Kd (apparent)
T4 sequence (D3Z7P3 128-555 R322A/Y471W): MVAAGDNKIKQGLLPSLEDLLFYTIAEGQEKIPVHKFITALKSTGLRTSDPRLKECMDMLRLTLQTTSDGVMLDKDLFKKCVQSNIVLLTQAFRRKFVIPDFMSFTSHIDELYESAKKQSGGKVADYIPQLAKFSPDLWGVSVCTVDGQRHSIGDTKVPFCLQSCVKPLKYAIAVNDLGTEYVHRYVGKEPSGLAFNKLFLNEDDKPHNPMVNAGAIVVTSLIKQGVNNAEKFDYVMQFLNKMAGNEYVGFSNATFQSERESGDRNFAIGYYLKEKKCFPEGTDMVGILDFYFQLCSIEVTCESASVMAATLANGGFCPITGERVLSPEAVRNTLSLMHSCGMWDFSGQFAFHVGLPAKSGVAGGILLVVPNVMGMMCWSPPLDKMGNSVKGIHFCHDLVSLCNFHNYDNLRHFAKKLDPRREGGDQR

GAC (F318A and Y466W) = target: T5, GAC (F318A and Y466W) (Mus musculus, UniProt D3Z7P3, F323A/Y471W); experiment: Tryptophan fluorescence quenching binding assay, GAC (F318A and Y466W); details: GAC mutant F318A, Trp 466 fluorescence, read-out: Kd (apparent)
T5 sequence (D3Z7P3 128-555 F323A/Y471W): T4 sequence (D3Z7P3 128-555 R322A/Y471W) with A195R, F196A

[1] = set-up: method as in PMID 26988803; details: compared with BPTES; cited from earlier work

| SMILES | Kd (GAC (F322W)) | quenching of Trp 322 fluorescence (in words) (GAC (F322W); GAC (F322W)) | IC50 (recombinant GAC) | quenching of Trp 466 fluorescence / binding (in words) (GAC (Y466W); GAC (Y466W)) | Kd (GAC (Y466W); 100 nM GAC (Y466W)) | further results |
| --- | --- | --- | --- | --- | --- | --- |
| Nc1nnc(N2CCC(Oc3nnc(NC(=O)Cc4ccccc4)s3)CC2)s1 [UPGL00031] | 34.4 nM | quenching of Trp 322 fluorescence | 203 nM | effective at causing a quenching of Trp 466 fluorescence | 27.2 nM | – |
| O=C(Cc1ccccc1)Nc1nnc(CCSCCc2nnc(NC(=O)Cc3ccccc3)s2)s1 [BPTES, bis-2-(5-phenylacetamido-1,3,4-thiadiazol-2-yl)ethyl sulfide, reference compound] | – | – | – | – | – | inhibition of mouse GAC (K325A) (mouse GAC (K325A)): resistant to inhibition |
| O=C(Cc1ccccc1)Nc1ccc(OC2CCN(c3ccc(NC(=O)Cc4ccccc4)nn3)CC2)nn1 [UPGL00045] | – | – | 98 nM | – | – | – |
| O=C(Cc1ccccc1)Nc1nnc(NC2CCN(c3nnc(NC(=O)Cc4ccccc4)s3)CC2)s1 [UPGL00004] | – | – | 29 nM | – | 76 nM | Kd (GAC (K320A and Y466W)): > 1000 nM; Kd (GAC (R317A and Y466W)): 38 nM; Kd (GAC (F318A and Y466W)): 24 nM |
| O=C(Cc1cccc(OC(F)(F)F)c1)Nc1ccc(CCCCc2nnc(NC(=O)Cc3ccccn3)s2)nn1 [CB-839, reference compound] | – | – | – | – | – | calculated logP relative to BPTES [1]: higher calculated logP |
| CC(=O)Nc1nnc(OC2CCN(c3nnc(NC(C)=O)s3)CC2)s1 [UPGL00020] | – | – | 1050 nM | significantly reduced binding | – | – |
| Nc1nnc(OC2CCN(c3nnc(N)s3)CC2)s1 [UPGL00018] | > 1000 nM | largely ineffective at micromolar concentrations | > 10000 nM | markedly less effective | > 1000 nM | lowest concentration with statistically significant quenching (GAC (F322W); GAC (F322W)): 240 nM; inhibition (recombinant GAC; at 10 μM, catalytic data of this paper come from ref 20): ~20%; competition with UPGL00019 for GAC binding (GAC (Y466W); 100 nM GAC (Y466W), 1 μM UPGL00018 and 1 μM UPGL00019, simultaneous or sequential): unable to compete away UPGL00019; lowest concentration with statistically significant effect on tryptophan fluorescence (GAC (Y466W); GAC (Y466W), highest tested concentration, effect minimal): 980 nM |
| O=C(Cc1ccccc1)Nc1nnc(O[C@H]2CCN(c3nnc(NC(=O)Cc4ccccc4)s3)C2)s1 [UPGL00015] | – | – | 40 nM | – | – | – |
| O=C(Cc1ccccc1)Nc1nnc(OC2CCN(c3nnc(NC(=O)Cc4ccccc4)s3)CC2)s1 [UPGL00019] | 54.5 nM | quenching of Trp 322 fluorescence | 30 nM | effective at causing a quenching of Trp 466 fluorescence | 28.7 nM and 29 nM | Kd (GAC (K320A and Y466W)): > 1000 nM; Kd (GAC (R317A and Y466W)): 31 nM; Kd (GAC (F318A and Y466W)): 54 nM |
